Calls of active or inactive are those of the source. The rule behind the calls is not given here.
Test system: CCRIS mutagenicity, Ames/micronucleus/aberration tests
Assay: CCRIS mutagenicity studies
[1] = Test System: AMES SALMONELLA TYPHIMURIUM, Strain/Indicator: TA98, Metabolic Activation: NONE, Method: PREINCUBATION
[2] = Test System: AMES SALMONELLA TYPHIMURIUM, Strain/Indicator: TA100, Metabolic Activation: NONE, Method: PREINCUBATION

`Nc1ncnc2c1ncn2-c1cccc([N+](=O)[O-])c1` was tested, and the mutagenic call (Test System: AMES SALMONELLA TYPHIMURIUM, Strain/Indicator: TA98(1,8-DNP), Metabolic Activation: NONE, Method: PREINCUBATION) was “active; positive”, the mutagenic call (Test System: AMES SALMONELLA TYPHIMURIUM, Strain/Indicator: TA98(1,8-DNP), Metabolic Activation: RAT, LIVER, S-9, PCB, Method: PREINCUBATION) was “active; positive” and the mutagenic call (Test System: AMES SALMONELLA TYPHIMURIUM, Strain/Indicator: TA98(NR), Metabolic Activation: NONE, Method: PREINCUBATION) was “inactive; negative”. For the same molecule, the mutagenic call (Test System: AMES SALMONELLA TYPHIMURIUM, Strain/Indicator: TA98(NR), Metabolic Activation: RAT, LIVER, S-9, PCB, Method: PREINCUBATION) was “inactive; negative”, the mutagenic call [1] was “active; positive” and the mutagenic call (Test System: AMES SALMONELLA TYPHIMURIUM, Strain/Indicator: TA98, Metabolic Activation: RAT, LIVER, S-9, PCB, Method: PREINCUBATION) was “active; positive”. For the same molecule, the mutagenic call (Test System: AMES SALMONELLA TYPHIMURIUM, Strain/Indicator: TA100(1,8-DNP), Metabolic Activation: NONE, Method: PREINCUBATION) was “active; positive”, the mutagenic call (Test System: AMES SALMONELLA TYPHIMURIUM, Strain/Indicator: TA100(1,8-DNP), Metabolic Activation: RAT, LIVER, S-9, PCB, Method: PREINCUBATION) was “active; positive” and the mutagenic call (Test System: AMES SALMONELLA TYPHIMURIUM, Strain/Indicator: TA100(NR), Metabolic Activation: NONE, Method: PREINCUBATION) was “inactive; negative”. For the same molecule, the mutagenic call (Test System: AMES SALMONELLA TYPHIMURIUM, Strain/Indicator: TA100(NR), Metabolic Activation: RAT, LIVER, S-9, PCB, Method: PREINCUBATION) was “inactive; negative”, the mutagenic call [2] was “active; positive” and the mutagenic call (Test System: AMES SALMONELLA TYPHIMURIUM, Strain/Indicator: TA100, Metabolic Activation: RAT, LIVER, S-9, PCB, Method: PREINCUBATION) was “active; positive”. The mutagenic call (Test System: AMES SALMONELLA TYPHIMURIUM, Strain/Indicator: YG1020, Metabolic Activation: NONE, Method: PREINCUBATION) was “active; positive”, the mutagenic call (Test System: AMES SALMONELLA TYPHIMURIUM, Strain/Indicator: YG1020, Metabolic Activation: RAT, LIVER, S-9, PCB, Method: PREINCUBATION) was “active; positive” and the mutagenic call (Test System: AMES SALMONELLA TYPHIMURIUM, Strain/Indicator: YG1021, Metabolic Activation: NONE, Method: PREINCUBATION) was “active; positive”. The mutagenic call (Test System: AMES SALMONELLA TYPHIMURIUM, Strain/Indicator: YG1021, Metabolic Activation: RAT, LIVER, S-9, PCB, Method: PREINCUBATION) was “active; positive”, the mutagenic call (Test System: AMES SALMONELLA TYPHIMURIUM, Strain/Indicator: YG1024, Metabolic Activation: NONE, Method: PREINCUBATION) was “active; positive” and the mutagenic call (Test System: AMES SALMONELLA TYPHIMURIUM, Strain/Indicator: YG1024, Metabolic Activation: RAT, LIVER, S-9, PCB, Method: PREINCUBATION) was “active; positive”. The mutagenic call (Test System: AMES SALMONELLA TYPHIMURIUM, Strain/Indicator: YG1025, Metabolic Activation: NONE, Method: PREINCUBATION) was “active; positive”, the mutagenic call (Test System: AMES SALMONELLA TYPHIMURIUM, Strain/Indicator: YG1025, Metabolic Activation: RAT, LIVER, S-9, PCB, Method: PREINCUBATION) was “active; positive” and the mutagenic call (Test System: AMES SALMONELLA TYPHIMURIUM, Strain/Indicator: YG1026, Metabolic Activation: NONE, Method: PREINCUBATION) was “active; positive”. For the same molecule, the mutagenic call (Test System: AMES SALMONELLA TYPHIMURIUM, Strain/Indicator: YG1026, Metabolic Activation: RAT, LIVER, S-9, PCB, Method: PREINCUBATION) was “active; positive”, the mutagenic call (Test System: AMES SALMONELLA TYPHIMURIUM, Strain/Indicator: YG1029, Metabolic Activation: NONE, Method: PREINCUBATION) was “active; positive” and the mutagenic call (Test System: AMES SALMONELLA TYPHIMURIUM, Strain/Indicator: YG1029, Metabolic Activation: RAT, LIVER, S-9, PCB, Method: PREINCUBATION) was “active; positive”.

In the case of `CCCCC(CC)COCCC#N` (stereo not drawn), the mutagenic call (Test System: AMES SALMONELLA TYPHIMURIUM, Strain/Indicator: TA97, Metabolic Activation: HAMSTER, LIVER, S-9, AROCLOR 1254 (10%), Method: PREINCUBATION) is reported as “inactive; negative”, the mutagenic call (Test System: AMES SALMONELLA TYPHIMURIUM, Strain/Indicator: TA97, Metabolic Activation: HAMSTER, LIVER, S-9, AROCLOR 1254 (30%), Method: PREINCUBATION) is reported as “inactive; negative” and the mutagenic call (Test System: AMES SALMONELLA TYPHIMURIUM, Strain/Indicator: TA97, Metabolic Activation: NONE, Method: PREINCUBATION) is reported as “inactive; negative”. The mutagenic call (Test System: AMES SALMONELLA TYPHIMURIUM, Strain/Indicator: TA97, Metabolic Activation: RAT, LIVER, S-9, AROCLOR 1254 (10%), Method: PREINCUBATION) was “inactive; negative”, the mutagenic call (Test System: AMES SALMONELLA TYPHIMURIUM, Strain/Indicator: TA97, Metabolic Activation: RAT, LIVER, S-9, AROCLOR 1254 (30%), Method: PREINCUBATION) was “inactive; negative” and the mutagenic call (Test System: AMES SALMONELLA TYPHIMURIUM, Strain/Indicator: TA98, Metabolic Activation: HAMSTER, LIVER, S-9, AROCLOR 1254 (10%), Method: PREINCUBATION) was “inactive; negative”. For the same molecule, the mutagenic call (Test System: AMES SALMONELLA TYPHIMURIUM, Strain/Indicator: TA98, Metabolic Activation: HAMSTER, LIVER, S-9, AROCLOR 1254 (30%), Method: PREINCUBATION) was “inactive; negative”, the mutagenic call [1] was “inactive; negative” and the mutagenic call (Test System: AMES SALMONELLA TYPHIMURIUM, Strain/Indicator: TA98, Metabolic Activation: RAT, LIVER, S-9, AROCLOR 1254 (10%), Method: PREINCUBATION) was “inactive; negative”. For the same molecule, the mutagenic call (Test System: AMES SALMONELLA TYPHIMURIUM, Strain/Indicator: TA98, Metabolic Activation: RAT, LIVER, S-9, AROCLOR 1254 (30%), Method: PREINCUBATION) was “inactive; negative”, the mutagenic call (Test System: AMES SALMONELLA TYPHIMURIUM, Strain/Indicator: TA100, Metabolic Activation: HAMSTER, LIVER, S-9, AROCLOR 1254 (10%), Method: PREINCUBATION) was “inactive; negative” and the mutagenic call (Test System: AMES SALMONELLA TYPHIMURIUM, Strain/Indicator: TA100, Metabolic Activation: HAMSTER, LIVER, S-9, AROCLOR 1254 (30%), Method: PREINCUBATION) was “inactive; negative”. The mutagenic call [2] was “inactive; negative”, the mutagenic call (Test System: AMES SALMONELLA TYPHIMURIUM, Strain/Indicator: TA100, Metabolic Activation: RAT, LIVER, S-9, AROCLOR 1254 (10%), Method: PREINCUBATION) was “inactive; negative” and the mutagenic call (Test System: AMES SALMONELLA TYPHIMURIUM, Strain/Indicator: TA100, Metabolic Activation: RAT, LIVER, S-9, AROCLOR 1254 (30%), Method: PREINCUBATION) was “inactive; negative”. The mutagenic call (Test System: AMES SALMONELLA TYPHIMURIUM, Strain/Indicator: TA1535, Metabolic Activation: HAMSTER, LIVER, S-9, AROCLOR 1254 (10%), Method: PREINCUBATION) was “inactive; negative”, the mutagenic call (Test System: AMES SALMONELLA TYPHIMURIUM, Strain/Indicator: TA1535, Metabolic Activation: HAMSTER, LIVER, S-9, AROCLOR 1254 (30%), Method: PREINCUBATION) was “inactive; negative” and the mutagenic call (Test System: AMES SALMONELLA TYPHIMURIUM, Strain/Indicator: TA1535, Metabolic Activation: NONE, Method: PREINCUBATION) was “inactive; negative”. For the same molecule, the mutagenic call (Test System: AMES SALMONELLA TYPHIMURIUM, Strain/Indicator: TA1535, Metabolic Activation: RAT, LIVER, S-9, AROCLOR 1254 (10%), Method: PREINCUBATION) was “inactive; negative” and the mutagenic call (Test System: AMES SALMONELLA TYPHIMURIUM, Strain/Indicator: TA1535, Metabolic Activation: RAT, LIVER, S-9, AROCLOR 1254 (30%), Method: PREINCUBATION) was “inactive; negative”.

`Cc1ccc2nc3ccccc3c(N)c2c1` was tested, and the mutagenic call (Test System: AMES SALMONELLA TYPHIMURIUM, Strain/Indicator: TA1537, Metabolic Activation: NONE, Method: PREINCUBATION) was “active; positive”.

`O=C(CCCCl)N=c1sn(C(=O)CCCCl)c2ccc(Cl)cc12` was tested, and the mutagenic call (Test System: AMES SALMONELLA TYPHIMURIUM, Strain/Indicator: TA100, Metabolic Activation: S-9, Method: STANDARD PLATE) was “active; positive”.

For `CN1COCN(Cc2cnc(Cl)s2)/C1=N/[N+](=O)[O-]`, the mutagenic call (End Point: IN VIVO MICRONUCLEUS, Test System: BONE MARROW POLYCHROMATIC ERYTHROCYTES, Species: RAT, Strain/Sex: WISTAR/FEMALE, Route: ORAL (GAVAGE)) was “active; positive” and the mutagenic call (End Point: IN VIVO MICRONUCLEUS, Test System: POLYCHROMATIC ERYTHROCYTES FROM COLONIC CRYPT EPITHELIAL CELLS, Species: RAT, Strain/Sex: WISTAR/FEMALE, Route: ORAL (GAVAGE)) was “active; positive”.
